Laboratory results as given in patent publication US8147838B2, “Peptide” (priority 2005, dated 2012).
Residues, ends and D or L forms follow the SMILES beside them. No end group written: not given here.

What was measured:
[1] = molecular target: MHC class I allele B*0702 (B7) (Homo sapiens, UniProt P01889); test: iScore multi-parametric analysis, B*0702; details: level of binding: >0.5, 0.25-0.5, <0.25
Experimental: (§1) Finally, multiparametric analysis is performed on the results from these assays and an iScore is generated. The iScore represents a measure of the overall quality of peptide-MHC binding, enabling candidate peptides to be ranked in order of binding quality and allowing rational prioritisation of peptides for functional cellular follow-up studies.
As part of the validation of the iTopia system, a panel of overlapping peptides derived from the CMV pp 65 protein were used and their binding properties for the A*0201 allele analysed. A number of T cell epitopes restricted by HLA A*0201 had already been identified (by more conventional methodologies) by other researchers for this protein. In the iTopia study, it was reported that an iScore of: >0.5 represented “good quality binding”; between 0.25 and 0.5 represented “medium quality binding”; and <0.25 represented “poor quality binding”.
(§2) Multi-parametric analysis permits the integration of half-life and ED50 parameters in an integrated iScore. This reflects the capability of a peptide to reconstitute with MHC molecules in a stable complex, defining its overall level of binding i.e. the iScore value represents the overall quality of peptide-MHC binding and is used to rank candidate peptides as an indicator of functional relevance. The lead candidate epitopes for each allele are selected for cellular functional analysis to confirm their biological relevance.

[2] = molecular target: MHC class I allele A*0101 (A1) (Homo sapiens, UniProt P04439, A114D/A174V/A182V/D101N/D185E/E176A/E190D/L180R/Q94H/R68K/S129P/T187R/V100A/V91M/W191G); test: iScore multi-parametric analysis, A*0101; type: binding; details: level of binding: >0.5, 0.25-0.5, <0.25
Experimental: as §1
(§3) As part of the validation of the iTopia system, a panel of overlapping peptides derived from the CMV pp 65 protein were used and their binding properties for the A*0201 allele analysed. A number of T cell epitopes restricted by HLA A*0201 had already been identified (by more conventional methodologies) by other researchers for this protein. In the iTopia study, it was reported that an iScore of: >0.5 represented “good quality binding”; between 0.25 and 0.5 represented “medium quality binding”; and <0.25 represented “poor quality binding”. Six of the 20 peptides which gave a “good” iScore (>0.5) for A*0201, represented previously characterised CMV pp 65 A*0201 epitopes.
(§4) Each MHC class I allele has different binding properties and affinities for peptides which they bind. Therefore, information obtained with HLA A*0201 in which peptides are ranked as good, medium or poor binders using >0.5, 0.25-0.5 and <0.25 as thresholds is not necessarily transferable between alleles. Also, different proteins are likely to have distinct immunogenic profiles and the affinities between peptides and MHC class I molecules will be different between proteins. This may be particularly relevant in the case of self-antigens where immunogenicity is likely to be lower than in foreign proteins.
as §2
(§5) The changes in gradient of the graphs in FIGS. 7 to 10 are indicated by a line which delineates the populations of iScores forming the basis of discrimination for further functional studies.

[3] = molecular target: MHC class I allele A*0301 (A3) (Homo sapiens, UniProt P04439); test: iScore multi-parametric analysis, A*0301; type: binding; details: for iScore, MHC Class I Molecule A*0301: level of binding: >0.5, 0.25-0.5, <0.25; for iScore (iTopia), A*0301: integrates half-life and ED50
Experimental: as §1, §3, §4, §2, §5

[4] = molecular target: MHC class I allele A*0201 (A2) (Homo sapiens, UniProt P04439, D140Y/D185E/D98H/E176V/E277Q/G131W/G231S/I119V/I121R/I166T/I218V/L300P/L318F/N151K/N90K/P208A/P217A/Q86G/Q94H/R138H/R169H/T345S); test: iScore multi-parametric analysis, A*0201; type: binding; details: level of binding: >0.5, 0.25-0.5, <0.25
Experimental: as §1, §3, §4, §2, §5

Row | iScore, MHC Class I Molecule B*0702 [1] | iScore, MHC Class I Molecule A*0101 [2] | iScore, MHC Class I Molecule A*0301 [3] | iScore, MHC Class I Molecule A*0201 [4] | Compound | iScore (iTopia), A*0301 [3]
1 | 0.012 | 0 | 0 | 0.016 | C[C@H](NC(=O)[C@H](C)NC(=O)[C@@H]1CCCN1C(=O)CNC(=O)[C@H](CCCNC(=N)N)NC(=O)[C@H](CO)NC(=O)[C@H](CS)NC(=O)CNC(=O)CN)C(=O)O [Peptide 2] | 
2 | 0.059 | 0 | 0 | 0.115 | AARTVKCVN [Peptide 36] | 
3 | 0.101 | 0 | 0 | 0 | APSPLVELI [Peptide 86] | 
4 | 0 | 0 | 0 | 0.162 | AQLPSLRHL [Peptide 116] | 
5 | 0 | 0 | 0 | 0.062 | AVSAQPPLP [Peptide 26] | 
6 | 0 | 0 | 0 | 0.18 | AYVRNLFLT [Peptide 46] | 
7 | 0 | 0 | 0 | 0.046 | EHLPSLRQL [Peptide 70] | 
8 | 0 | 0 | 0 | 0.096 | EKMRNRVLL [Peptide 164] | 
9 | 0 | 0 | 0 | 0.067 | ELILNHIVP [Peptide 89] | 
10 | 0 | 0 | 0 | 0.139 | EVVQGKDRL [Peptide 157] | 
11 | 0 | 0 | 0 | 0.134 | FLASAVSAQ [Peptide 24] | 
12 | 0 | 0 | 0 | 0.384 | GMVVAALLA [Peptide 99] | 
13 | 0 | 0 | 0 | 0.13 | GSRLDEVRA [Peptide 64] | 
14 | 0 | 0 | 0 | 0.227 | HFLYLPRDV [Peptide 111] | 

The next lines start with the compound.

Row | Compound | iScore, MHC Class I Molecule B*0702 [1] | iScore, MHC Class I Molecule A*0101 [2] | iScore, MHC Class I Molecule A*0301 [3] | iScore, MHC Class I Molecule A*0201 [4] | iScore (iTopia), A*0301 [3]
15 | CSCC[C@H](NC(=O)[C@H](CC(=O)O)NC(=O)[C@H](C)NC(=O)[C@H](CCSC)NC(=O)[C@H](Cc1c[nH]cn1)NC(=O)[C@H](CS)NC(=O)[C@H](CC(=O)O)NC(=O)[C@H](CS)NC(=O)[C@@H](N)C(C)C)C(=O)O [Peptide 149] (H-VCDCHMADM-OH; N-terminus and C-terminus assumed) | 0 | 0 | 0 | 0.061 | 
16 | CC[C@H](C)[C@H](NC(=O)[C@H](C)NC(=O)CNC(=O)[C@@H](NC(=O)[C@@H](N)CC(C)C)[C@@H](C)CC)C(=O)N[C@@H](Cc1ccccc1)C(=O)N[C@@H](CC(C)C)C(=O)N[C@@H](CC(C)C)C(=O)N[C@H](C(=O)O)C(C)C [Peptide 183] | 0 | 0 | 0.07 | 1.897 | 
17 | CC(C)C[C@H](NC(=O)[C@H](Cc1ccc(O)cc1)NC(=O)[C@H](CC(C)C)NC(=O)[C@@H](NC(=O)[C@H](CC(C)C)NC(=O)[C@@H](N)CC(C)C)C(C)C)C(=O)N[C@@H](CC(N)=O)C(=O)N[C@@H](CCCNC(=N)N)C(=O)N[C@@H](CCCCN)C(=O)O [Peptide 186] |  | 0 | 0.372 | 0.386 | 0.375
18 | ADLSPFAFS [Peptide 78] | 0 | 0 | 0 | 0.116 | 
19 | ADPRLTNLS [Peptide 204] | 0.094 | 0 | 0 | 0 | 
20 | AGDGRLRLA [Peptide 6] | 0 | 0 | 0 | 0.023 | 
21 | ALKVLHNGT [Peptide 135] | 0 | 0 | 0 | 0.104 | 
22 | APFLASAVS [Peptide 23] | 0.176 | 0 | 0 | 0.041 | 
23 | ASVSAPSPL [Peptide 84] | 0.017 | 0 | 0 | 0.059 | 
24 | CVNRNLTEV [Peptide 39] | 0.093 | 0 | 0 | 0.05 | 
25 | DGRLRLARL [Peptide 7] | 0.038 | 0 | 0 | 0 | 
26 | ELAALNLSG [Peptide 60] | 0 | 0 | 0 | 0.075 | 
27 | FARRPPLAE [Peptide 56] | 0 | 0 | 0 | 0.042 | 
28 | FEGMVVAAL [Peptide 98, FEGMVVAAL] | 0 | 0 | 0 | 0.051 | 
29 | FSSSAPFLA [Peptide 21] | 0 | 0.023 | 0 | 0.116 | 
30 | GAFARRPPL [Peptide 55] | 0.359 | 0 | 0 | 0.222 | 
31 | GLPHIRVFL [Peptide 142] | 0.075 | 0 | 0.319 | 1.39 | 0.319
32 | GLRRLELAS [Peptide 106] | 0 | 0 | 0 | 0.046 | 
33 | GWVSSSSPT [Peptide 14] | 0 | 0 | 0 | 0.044 | 
